The target in the assay is T1, Dimer of Gag-Pol polyprotein [489-587] (Human immunodeficiency virus 1, UniProt P12497).
T1 construct: 489-587
The experiment in a line: Protease Inhibition Assay. The following applies: pH 6.2; 37 °C. How it is done:
Inhibition constants were determined by a fluorometric assay with the fluorogenic substrate Arg-Glu(EDANS)-Ser-Gln-Asn-Tyr-Pro-Ile-Val-Lys(DABCYL)-Arg. The data were analyzed with the mathematical model for tight-binding inhibitors in which the concentration of inhibitor is less than or equal to the enzyme concentration. The data were fitted by nonlinear regression analysis to the equation with program Enzfitter (version 1.05).

The compound `CSC[C@H](NC(=O)COc1cccc2cnccc12)C(=O)N[C@@H](Cc1ccccc1)[C@H](O)C(=O)N1CSC(C)(C)[C@H]1C(=O)NC(C)(C)C` returned a Ki of 2.3 pM.
As to `CSC[C@H](NC(=O)COc1cccc2cnccc12)C(=O)N[C@@H](Cc1ccccc1)[C@H](O)C(=O)N1CSC[C@H]1C(=O)NC(C)(C)C` [Kynostatin 272], the affinity, expressed as Ki, was 5.5 pM.
In the case of `CC(C)(C)NC(=O)[C@H]1N(C(=O)[C@@H](O)[C@H](Cc2ccccc2)NC(=O)[C@H](CC(N)=O)NC(=O)COc2cccc3ccccc23)CSC1(C)C` [Noa-Asn-Apns-Dmt-NH-tBu] it was 6.8 pM.
